≈ marks a conversion by molar mass, not a printed value. Where “and” joins values, the source holds several entries; their conditions need not be identical. Equal entries are not always repeated. Where two headings read alike, the source gives them in different places.

Among the data in patent publication US4198506A, “2-Carboxyalkyl-2,3-dihydro-6-mercapto-s-triazolo[4,3-b]-pyridazin-3-ones” (Bristol-Myers Company, priority 1979, dated 1980) are MIC, ED50 and PD50 values, retold here.

The test system of test [1] is S. aureus penicillinase+). As to the kind of experiment: In vitro activity (geometric mean MIC, serial dilution). To be noted: Staphylococcus aureus; 13 strains; Mueller-Hinton agar, inoculum 10^4 dilution; MIC cutoff 200 mcg./ml.; read-out: Geometric Mean MIC. Type of test: cell-based.
The subject of the next test is S. aureus (sensitive). The test is described as above. Format: cell-based. The following applies: Staphylococcus aureus, read-out: Geometric Mean MIC.
The subject of a further test is D. pneumoniae. The description is as above. Format: cell-based. The following applies: Streptococcus pneumoniae; 9 strains; Mueller-Hinton agar, inoculum 10^4 dilution; MIC cutoff 200 mcg./ml.
The subject of test [2] is Enterobacter (Cephalosporinase +). Described as above. Type of test: cell-based. The following applies: 7 strains, Mueller-Hinton agar, inoculum 10^4 dilution, MIC cutoff 200 mcg./ml.
The next test relates to Proteus (indole-). The description is as above. To be noted: read-out: Geometric Mean MIC. Type of test: cell-based.
Test [3] relates to E. coli (Penicillinase +). The description is as above. Type of test: cell-based. The following applies: Escherichia coli, read-out: Geometric Mean MIC.
Another test concerns Providencia sp. Described as above. Type of test: cell-based. The following applies: 5 strains, Mueller-Hinton agar, inoculum 10^4 dilution, MIC cutoff 200 mcg./ml., read-out: Geometric Mean MIC.
In a further test the test system is Enterobacter (sensitive). Described as above. Type of test: cell-based. The following applies: 3 strains, Mueller-Hinton agar, inoculum 10^4 dilution, MIC cutoff 200 mcg./ml., read-out: Geometric Mean MIC.
For test [4], the system named is S. aureus (Methicillin-R). Described as above. Type of test: cell-based. The following applies: Staphylococcus aureus; 15 strains; Mueller-Hinton agar, inoculum 10^4 dilution; MIC cutoff 200 mcg./ml.
In a further test the test system is Klebsiella sp. Described as above. Type of test: cell-based. To be noted: 12 strains, Mueller-Hinton agar, inoculum 10^4 dilution, MIC cutoff 200 mcg./ml., read-out: Geometric Mean MIC.
Another test relates to E. coli (sensitive). Described as above. To be noted: Escherichia coli, read-out: Geometric Mean MIC. Format: cell-based.
The subject of a further test is S. marcescens. The description is as above. Format: cell-based. To be noted: Serratia marcescens, read-out: Geometric Mean MIC.
For another test, the system named is S. pyogenes. Described as above. Format: cell-based. The following applies: Streptococcus pyogenes; 10 strains; Mueller-Hinton agar, inoculum 10^4 dilution; MIC cutoff 200 mcg./ml.
Test [5] deals with Proteus (indole +, cephalosporinase +). The test is described as above. Format: cell-based. The following applies: read-out: Geometric Mean MIC.
For the next test, the system named is Proteus (indole +). The description is as above. Format: cell-based. The following applies: read-out: Geometric Mean MIC.
For the next test, the system named is S. aureus Smith. As to the kind of experiment: In vivo activity (Mice, sc). The following applies: Staphylococcus aureus, several determinations listed, read-out: PD50. From the text:
(§1) |In vivo Activity of BB-[…] and Related Compounds (Mice, sc) | (PD50 (mgm./kg.)

Another test concerns E. coli Juhl. As to the kind of experiment: In vivo activity (Mice, sc). To be noted: several determinations listed; for ED50: Escherichia coli, read-out: PD50.
From the text: as §1

The subject of a further test is Serr. marcescens. Kind of test: In vitro antibacterial activity (Steers' agar dilution MIC). Format: cell-based. The following applies: Serratia marcescens, table 4 (BB-S 525); Serr. marcescens; read-out: MIC.
In a further test the test system is Pr. mirabilis. The test is described as above. To be noted: Proteus mirabilis, table 4 (BB-S 525), Pr. mirabilis, read-out: MIC. Format: cell-based.
A further test has as its system Enterob. cloacae. The test is described as above. Format: cell-based. To be noted: table 4 (BB-S 525); Enterob. cloacae; read-out: MIC.
For another test, the system named is B. anthracis. As to the kind of experiment: microbe, parasite or virus in culture. The following applies: Bacillus anthracis, table 4 (BB-S 525); B. anthracis. Format: cell-based.
In another test the test system is Pr. morganii. As to the kind of experiment: In vitro antibacterial activity (Steers' agar dilution MIC). Format: cell-based. To be noted: Morganella morganii, table 4 (BB-S 525), Pr. morganii, read-out: MIC.
Another test deals with Pr. rettgeri. The description is as above. Type of test: cell-based. To be noted: Providencia rettgeri, table 4 (BB-S 525); Pr. rettgeri.
The subject of a further test is Pr. vulgaris. The test is described as above. Type of test: cell-based. To be noted: Proteus vulgaris, table 4 (BB-S 525), Pr. vulgaris, read-out: MIC.
The next test has as its system St. faecalis. The description is as above. Format: cell-based. To be noted: Enterococcus faecalis, table 4 (BB-S 525); St. faecalis; read-out: MIC.
For another test, the system named is Ps. aeruginosa. The description is as above. Format: cell-based. The following applies: table 4 (BB-S 525), Ps. aeruginosa.
A further test relates to Sal. enteritidis. Described as above. Format: cell-based. The following applies: Salmonella enterica, table 4 (BB-S 525), Sal. enteritidis.
The subject of the next test is Shig. sonnei. The description is as above. Format: cell-based. To be noted: Shigella sonnei, table 4 (BB-S 525); Shig. sonnei. From the text: (§2) In vitro Antibacterial Activity of BB-S493 Compared with
(§3) BB-S479 and Cefamandole (Determined by Steers' Agar Dilu-
(§4) tion Method on Mueller-Hinton Agar Plate)
(§5) In vitro antibacterial activity of BB-S 525 compared with
(§6) BB-S 479 and cefamandole (determined by Steers' agar dilution
(§7) method on Mueller-Hinton agar plate)

The subject of a further test is E. coli. The test is described as above. To be noted: Escherichia coli. Type of test: cell-based.
From the text: as §2, §3, §4, §5, §6, §7

A further test has as its system S. aureus. Described as above. Format: cell-based. The following applies: Staphylococcus aureus, table 4 (BB-S 525).
From the text: as §2, §3, §4, §5, §6, §7

The subject of another test is Sal. typhosa. Described as above. Type of test: cell-based. To be noted: table 4 (BB-S 525); Sal. typhosa.
From the text: as §2, §3, §4, §5, §6, §7

For another test, the system named is Shig. flexneri. Described as above. Format: cell-based. To be noted: Shigella flexneri; table 4 (BB-S 525); Shig. flexneri; read-out: MIC.
From the text: as §2, §3, §4, §5, §6, §7

The test system of a further test is Kl. pneumoniae. Described as above. Type of test: cell-based. To be noted: Klebsiella pneumoniae, table 4 (BB-S 525).
From the text: as §2, §3, §4, §5, §6, §7

The next test concerns Shig. dysenteriae. Described as above. Format: cell-based. To be noted: Shigella dysenteriae, table 4 (BB-S 525); Shig. dysenteriae.

For the compound `CNCc1cc(O)ccc1CC(=O)N[C@@H]1C(=O)N2C(C(=O)O)=C(CSc3ccc4nn(CC(=O)O)c(=O)n4n3)CS[C@H]12` [BB-S478, 7-(2-N-Methylaminomethyl-4-hydroxyphenylacetamido)-3-(2-N-carboxymethyl-2,3-dihydro-s-triazolo[4,5-b]pyridazin-3-on-6-ylthiomethyl)-3-cephem-4-carboxylic Acid], the MIC in [1] worked out at 1 µg/mL (≈ 1.62 µM); in the test with S. aureus (sensitive), 0.4 µg/mL (≈ 0.65 µM); in the test with D. pneumoniae, 0.03 µg/mL (≈ 0.0487 µM); in test [2], 2.6 µg/mL (≈ 4.22 µM); with Proteus (indole-), 0.4 µg/mL (≈ 0.65 µM); in test [3], 10 µg/mL (≈ 16.2 µM). Also, the MIC with Providencia sp. is 4.8 µg/mL (≈ 7.8 µM); in the test on Enterobacter (sensitive), 0.8 µg/mL (≈ 1.3 µM); in [4], 50 µg/mL (≈ 81.2 µM); with Klebsiella sp. it was 0.6 µg/mL (≈ 0.975 µM); with E. coli (sensitive) (13 strains, Mueller-Hinton agar, inoculum 10^4 dilution, MIC cutoff 200 mcg./ml.) it was 0.2 µg/mL (≈ 0.325 µM); with S. marcescens it was 40 µg/mL (≈ 65 µM). Besides, the MIC against S. pyogenes was 0.04 µg/mL (≈ 0.065 µM); in [5] it was 7.3 µg/mL (≈ 11.9 µM); in the test with Proteus (indole +), 0.3 µg/mL (≈ 0.487 µM). The ED50 in the test on S. aureus Smith and in the test with E. coli Juhl was 0.08 mg/kg each time.

Consider `CNCc1ccccc1CC(=O)N[C@@H]1C(=O)N2C(C(=O)O)=C(CSc3ccc4nn(CCC(=O)O)c(=O)n4n3)CS[C@H]12` [BB-S 525, 7-[o-(N-Methylaminomethyl)phenylacetamido]-3-[2-(2-carboxyethyl)-2,3-dihydro-s-triazolo[4,3-b]pyridazin-3-on-6-ylthiomethyl]-3-cephem-4-carboxylic acid], for which the MIC in the test with Serr. marcescens was 25 µg/mL (≈ 40.7 µM); in the test with Pr. mirabilis (1st line) it was 0.4 µg/mL (≈ 0.652 µM); with Pr. mirabilis (2nd line), 0.2 µg/mL (≈ 0.326 µM); in the test with Enterob. cloacae it was 3.1 µg/mL (≈ 5.05 µM); in the test with B. anthracis, 0.2 µg/mL (≈ 0.326 µM); in the test with Pr. morganii (1st line) it was more than 100 µg/mL. The MIC in the test with Pr. morganii (2nd line) was 0.2 µg/mL (≈ 0.326 µM); in the test on Pr. rettgeri, 0.8 µg/mL (≈ 1.3 µM); in the test on Pr. vulgaris (1st line), 0.2 µg/mL (≈ 0.326 µM); with Pr. vulgaris (2nd line), 3.1 µg/mL (≈ 5.05 µM); in the test with St. faecalis, more than 100 µg/mL; with Ps. aeruginosa (Pseudomonas aeruginosa, 1st line, read-out: MIC), more than 100 µg/mL. Besides, the MIC against Ps. aeruginosa (2nd line) was more than 100 µg/mL; against Sal. enteritidis, 0.2 µg/mL (≈ 0.326 µM); in the test on Shig. sonnei it was 0.1 µg/mL (≈ 0.163 µM); against E. coli (ATCC8739, table 4 (BB-S 525), E. coli ATCC 8739) it was 6.3 µg/mL (≈ 10.3 µM); in the test on E. coli (table 4 (BB-S 525), E. coli BX-1373, read-out: MIC), 0.4 µg/mL (≈ 0.652 µM); in the test on E. coli (table 4 (BB-S 525), E. coli Juhl, read-out: MIC), 0.4 µg/mL (≈ 0.652 µM). The MIC in the test with E. coli (table 4 (BB-S 525), E. coli NIHJ, read-out: MIC) worked out at 0.2 µg/mL (≈ 0.326 µM); in the test on E. coli (table 4 (BB-S 525), E. coli, strain not given, 1st line, read-out: MIC), 0.2 µg/mL (≈ 0.326 µM); in the test with E. coli (table 4 (BB-S 525), E. coli, strain not given, 2nd line, read-out: MIC), 0.2 µg/mL (≈ 0.326 µM); with E. coli (table 4 (BB-S 525), E. coli, strain not given, 3rd line, read-out: MIC), 6.3 µg/mL (≈ 10.3 µM); in the test on S. aureus (S. aureus (strain not given)), 0.2 µg/mL (≈ 0.326 µM); in the test on S. aureus (S. aureus BX-1633), 0.8 µg/mL (≈ 1.3 µM). In addition, the MIC worked out at 0.4 µg/mL (≈ 0.652 µM) in the test on S. aureus (S. aureus Smith); 0.2 µg/mL (≈ 0.326 µM) against Sal. typhosa; 12.5 µg/mL (≈ 20.4 µM) in the test with Shig. flexneri; 1.6 µg/mL (≈ 2.61 µM) with Kl. pneumoniae (Kl. pneumoniae, 1st line); 0.2 µg/mL (≈ 0.326 µM) in the test with Kl. pneumoniae (Kl. pneumoniae, 2nd line); 0.2 µg/mL (≈ 0.326 µM) against Kl. pneumoniae (Kl. pneumoniae, 3rd line). Further, the MIC worked out at 0.2 µg/mL (≈ 0.326 µM) against Kl. pneumoniae (Kl. pnuemoniae, 4th line) and 0.1 µg/mL (≈ 0.163 µM) in the test with Shig. dysenteriae.

Take `NCc1ccccc1CC(=O)N[C@@H]1C(=O)N2C(C(=O)O)=C(CSc3nnnn3CC(=O)O)CS[C@H]12` [BL-S786, reference compound]: the MIC in test [1] turned out to be 3 µg/mL (≈ 5.77 µM); in the test with S. aureus (sensitive) (4 strains, Mueller-Hinton agar, inoculum 10^4 dilution, MIC cutoff 200 mcg./ml.), 1.3 µg/mL (≈ 2.5 µM); in the test on D. pneumoniae, 0.08 µg/mL (≈ 0.154 µM); in [2] it was 7.7 µg/mL (≈ 14.8 µM); in the test with Proteus (indole-) it was 0.9 µg/mL (≈ 1.73 µM); in test [3] (7 strains, Mueller-Hinton agar, inoculum 10^4 dilution, MIC cutoff 200 mcg./ml.) it was 9.3 µg/mL (≈ 17.9 µM). Also, the MIC with Providencia sp. was 1.4 µg/mL (≈ 2.69 µM); with Enterobacter (sensitive) it was 1.3 µg/mL (≈ 2.5 µM); in test [4], 48 µg/mL (≈ 92.4 µM); with Klebsiella sp. it was 0.8 µg/mL (≈ 1.54 µM); in the test with E. coli (sensitive), 0.4 µg/mL (≈ 0.77 µM); in the test with S. marcescens (16 strains, Mueller-Hinton agar, inoculum 10^4 dilution, MIC cutoff 200 mcg./ml.), 180 µg/mL (≈ 346 µM). The MIC came out at 0.2 µg/mL (≈ 0.385 µM) against S. pyogenes; 29 µg/mL (≈ 55.8 µM) in test [5] (5 strains, Mueller-Hinton agar, inoculum 10^4 dilution, MIC cutoff 200 mcg./ml.); 0.7 µg/mL (≈ 1.35 µM) in the test with Proteus (indole +). Also, in the test with E. coli Juhl, the ED50 worked out at 0.43 mg/kg. The PD50 with E. coli Juhl was 0.55 mgm./kg. and 0.46 mgm./kg. and 0.39 mgm./kg.
